Measurements from patent US10941158B2, “Pyrazole ACC inhibitors and uses thereof” (Gilead Apollo, LLC, priority 2015, dated 2021).
Values after ≈ are worked out from the molar mass of the structure shown. Like-named read-outs stand apart in the source and are kept apart here.

Key:
[1] = tested on: Septoria tritici (St); test: Growth inhibition assay of fungal pathogens; type: cell-based; settings: for IC90: Zymoseptoria tritici, read-out: Concentration at 90% Inhibition St
Method in brief: (§1)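 Percent growth inhibition was derived from 48 h OD600 and visual scores relative to 2% DMSO, with blank background subtraction. Fungi were grown from spores in 17% V8 liquid medium, R. solani from 1.5 mm plugs in ¼ PDB, with compound at final 50/10/2 or 2/0.4/0.08 ppm.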

[2] = tested on: Fusarium moniliforme (Fm); test: Growth inhibition assay of fungal pathogens; type: cell-based; settings: for IC90: Fusarium verticillioides, 48 h, read-out: Concentration at 90% Inhibition Fm
Method in brief: as §1

[3] = tested on: Rhizoctonia solani (Rs); test: Growth inhibition assay of fungal pathogens; type: cell-based; settings: 48 h, read-out: Concentration at 90% Inhibition Rs
Method in brief: as §1

[4] = tested on: Phytophthora capsici (Pc); test: Growth inhibition assay of fungal pathogens; type: cell-based; settings: for IC90: Phytophthora capsici, read-out: Concentration at 90% Inhibition Pc
Method in brief: as §1

[5] = tested on: Botrtyis cinerea (Bc); test: Growth inhibition assay of fungal pathogens; type: cell-based; settings: 48 h, read-out: Concentration at 90% Inhibition Bc
Method in brief: as §1

[6] = tested on: Collectotrichum graminicola (Cg); test: Growth inhibition assay of fungal pathogens; type: cell-based; settings: 48 h, read-out: Concentration at 90% Inhibition Cg
Method in brief: as §1

[7] = tested on: Fusarium virguliforme (Fv); test: Growth inhibition assay of fungal pathogens; type: cell-based; settings: 48 h
Method in brief: as §1

[8] = tested on: Diplodia maydis (Dm); test: Growth inhibition assay of fungal pathogens; type: cell-based; settings: Stenocarpella maydis, 48 h, read-out: Concentration at 90% Inhibition Dm
Method in brief: as §1

[9] = target: human (hACC2) ACC2 (Homo sapiens, UniProt O00763); test: In vitro Acetyl-CoA Carboxylase (ACC) inhibition assay (ADP-Glo), hACC2; type: biochemical
Procedure: The detailed procedure is as follows. […] 10 μL ADP glo reagent was added. […] 20 μL kinase detection reagent was added.
“NA” stands for “not assayed.”

[10] = target: fungal (fACC2) ACC2 (UniProt Q00955); settings: read-out: fACC2 IC50; fungal ACC2, ADP-Glo
[11] = tested on: C. parapsilosis ATCC 22019; test: Anti-Fungal (Candida) Activity Assay, broth microtiter MIC; type: cell-based; settings: Lodderomyces parapsilosis, read-out: MIC C. parapsilosis ATCC 22019
Method in brief: (§2)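 In CLSI M27-A3 microtiter plates, yeast from overnight agar culture is inoculated in RPMI 1640–MOPS at a standard-curve density. The MIC is the endpoint scored visually against growth control at 48 h.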

[12] = tested on: C. albicans ATCC 90028; test: as above; type: cell-based; settings: read-out: MIC C. albicans ATCC 90028
Method in brief: as §2

[13] = tested on: C. krusei ATCC 6258; test: as above; type: cell-based; settings: Pichia kudriavzevii, read-out: MIC C. krusei ATCC 6258
Method in brief: as §2

[14] = Table 4a, 48 hours, read-out: Concentration at 90% Inhibition Fv
[15] = Table 4b, 48 hours, read-out: Concentration at 90% Inhibition Fv
[16] = ATCC22019, 3 replicates, MIC recorded at 48 h
[17] = ATCC90028, 3 replicates, MIC recorded at 48 h
[18] = ATCC6258, 3 replicates, MIC recorded at 48 h

fungal (fACC2) ACC2, sequence (Q00955 whole entry): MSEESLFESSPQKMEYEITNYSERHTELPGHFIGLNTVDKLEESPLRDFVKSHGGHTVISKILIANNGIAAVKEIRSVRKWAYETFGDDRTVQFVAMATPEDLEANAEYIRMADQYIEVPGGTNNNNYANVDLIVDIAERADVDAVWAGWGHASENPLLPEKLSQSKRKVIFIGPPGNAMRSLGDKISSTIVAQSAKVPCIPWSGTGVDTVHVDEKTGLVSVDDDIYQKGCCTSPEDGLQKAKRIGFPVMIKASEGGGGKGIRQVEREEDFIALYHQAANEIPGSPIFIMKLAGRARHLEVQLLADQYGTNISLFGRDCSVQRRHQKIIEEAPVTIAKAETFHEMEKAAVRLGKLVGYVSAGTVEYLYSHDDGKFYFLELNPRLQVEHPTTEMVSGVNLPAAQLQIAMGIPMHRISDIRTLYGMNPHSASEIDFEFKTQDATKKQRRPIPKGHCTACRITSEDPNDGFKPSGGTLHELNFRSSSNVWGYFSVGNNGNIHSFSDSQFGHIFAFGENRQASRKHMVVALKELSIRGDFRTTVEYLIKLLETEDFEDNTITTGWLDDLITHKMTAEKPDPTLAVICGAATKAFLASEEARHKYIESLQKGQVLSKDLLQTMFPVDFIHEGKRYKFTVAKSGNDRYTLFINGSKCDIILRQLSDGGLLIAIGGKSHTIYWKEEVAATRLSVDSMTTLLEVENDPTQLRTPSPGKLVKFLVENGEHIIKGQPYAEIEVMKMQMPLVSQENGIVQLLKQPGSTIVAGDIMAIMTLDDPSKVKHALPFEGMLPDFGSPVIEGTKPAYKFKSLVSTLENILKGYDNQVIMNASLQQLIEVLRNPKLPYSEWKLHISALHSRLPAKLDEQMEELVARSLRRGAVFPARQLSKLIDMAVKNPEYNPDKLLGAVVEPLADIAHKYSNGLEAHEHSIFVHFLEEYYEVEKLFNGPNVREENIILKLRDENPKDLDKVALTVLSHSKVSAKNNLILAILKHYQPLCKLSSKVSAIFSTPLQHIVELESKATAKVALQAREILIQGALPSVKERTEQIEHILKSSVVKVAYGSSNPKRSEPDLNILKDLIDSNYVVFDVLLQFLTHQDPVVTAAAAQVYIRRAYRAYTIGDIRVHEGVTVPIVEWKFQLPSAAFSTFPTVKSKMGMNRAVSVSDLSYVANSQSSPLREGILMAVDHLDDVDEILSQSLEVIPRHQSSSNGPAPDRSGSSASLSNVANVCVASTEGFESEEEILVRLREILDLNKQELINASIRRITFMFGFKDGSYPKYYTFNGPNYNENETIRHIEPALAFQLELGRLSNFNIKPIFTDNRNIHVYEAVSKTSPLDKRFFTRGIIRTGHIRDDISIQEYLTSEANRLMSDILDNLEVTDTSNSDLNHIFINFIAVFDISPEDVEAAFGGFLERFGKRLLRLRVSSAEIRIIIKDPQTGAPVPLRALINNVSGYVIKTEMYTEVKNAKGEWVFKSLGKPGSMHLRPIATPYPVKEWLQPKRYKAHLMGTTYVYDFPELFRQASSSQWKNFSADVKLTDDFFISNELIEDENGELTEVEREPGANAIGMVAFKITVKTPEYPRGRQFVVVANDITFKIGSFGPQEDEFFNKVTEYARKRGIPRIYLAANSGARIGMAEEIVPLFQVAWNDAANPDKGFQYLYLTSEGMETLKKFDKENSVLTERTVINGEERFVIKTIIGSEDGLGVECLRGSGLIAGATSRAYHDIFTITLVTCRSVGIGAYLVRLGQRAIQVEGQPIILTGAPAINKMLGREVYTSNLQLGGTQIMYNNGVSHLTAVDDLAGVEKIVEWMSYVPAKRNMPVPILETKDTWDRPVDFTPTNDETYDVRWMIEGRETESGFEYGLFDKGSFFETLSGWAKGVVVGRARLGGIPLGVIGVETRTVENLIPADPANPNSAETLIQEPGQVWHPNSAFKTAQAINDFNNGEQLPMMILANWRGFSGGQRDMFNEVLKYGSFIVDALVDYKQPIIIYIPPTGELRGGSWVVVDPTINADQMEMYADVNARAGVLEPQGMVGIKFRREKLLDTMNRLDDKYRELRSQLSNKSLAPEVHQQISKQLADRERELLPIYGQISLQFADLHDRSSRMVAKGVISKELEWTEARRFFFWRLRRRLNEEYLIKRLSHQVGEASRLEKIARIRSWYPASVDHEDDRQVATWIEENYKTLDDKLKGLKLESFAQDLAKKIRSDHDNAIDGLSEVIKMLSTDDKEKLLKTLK
human (hACC2) ACC2, sequence (O00763 whole entry): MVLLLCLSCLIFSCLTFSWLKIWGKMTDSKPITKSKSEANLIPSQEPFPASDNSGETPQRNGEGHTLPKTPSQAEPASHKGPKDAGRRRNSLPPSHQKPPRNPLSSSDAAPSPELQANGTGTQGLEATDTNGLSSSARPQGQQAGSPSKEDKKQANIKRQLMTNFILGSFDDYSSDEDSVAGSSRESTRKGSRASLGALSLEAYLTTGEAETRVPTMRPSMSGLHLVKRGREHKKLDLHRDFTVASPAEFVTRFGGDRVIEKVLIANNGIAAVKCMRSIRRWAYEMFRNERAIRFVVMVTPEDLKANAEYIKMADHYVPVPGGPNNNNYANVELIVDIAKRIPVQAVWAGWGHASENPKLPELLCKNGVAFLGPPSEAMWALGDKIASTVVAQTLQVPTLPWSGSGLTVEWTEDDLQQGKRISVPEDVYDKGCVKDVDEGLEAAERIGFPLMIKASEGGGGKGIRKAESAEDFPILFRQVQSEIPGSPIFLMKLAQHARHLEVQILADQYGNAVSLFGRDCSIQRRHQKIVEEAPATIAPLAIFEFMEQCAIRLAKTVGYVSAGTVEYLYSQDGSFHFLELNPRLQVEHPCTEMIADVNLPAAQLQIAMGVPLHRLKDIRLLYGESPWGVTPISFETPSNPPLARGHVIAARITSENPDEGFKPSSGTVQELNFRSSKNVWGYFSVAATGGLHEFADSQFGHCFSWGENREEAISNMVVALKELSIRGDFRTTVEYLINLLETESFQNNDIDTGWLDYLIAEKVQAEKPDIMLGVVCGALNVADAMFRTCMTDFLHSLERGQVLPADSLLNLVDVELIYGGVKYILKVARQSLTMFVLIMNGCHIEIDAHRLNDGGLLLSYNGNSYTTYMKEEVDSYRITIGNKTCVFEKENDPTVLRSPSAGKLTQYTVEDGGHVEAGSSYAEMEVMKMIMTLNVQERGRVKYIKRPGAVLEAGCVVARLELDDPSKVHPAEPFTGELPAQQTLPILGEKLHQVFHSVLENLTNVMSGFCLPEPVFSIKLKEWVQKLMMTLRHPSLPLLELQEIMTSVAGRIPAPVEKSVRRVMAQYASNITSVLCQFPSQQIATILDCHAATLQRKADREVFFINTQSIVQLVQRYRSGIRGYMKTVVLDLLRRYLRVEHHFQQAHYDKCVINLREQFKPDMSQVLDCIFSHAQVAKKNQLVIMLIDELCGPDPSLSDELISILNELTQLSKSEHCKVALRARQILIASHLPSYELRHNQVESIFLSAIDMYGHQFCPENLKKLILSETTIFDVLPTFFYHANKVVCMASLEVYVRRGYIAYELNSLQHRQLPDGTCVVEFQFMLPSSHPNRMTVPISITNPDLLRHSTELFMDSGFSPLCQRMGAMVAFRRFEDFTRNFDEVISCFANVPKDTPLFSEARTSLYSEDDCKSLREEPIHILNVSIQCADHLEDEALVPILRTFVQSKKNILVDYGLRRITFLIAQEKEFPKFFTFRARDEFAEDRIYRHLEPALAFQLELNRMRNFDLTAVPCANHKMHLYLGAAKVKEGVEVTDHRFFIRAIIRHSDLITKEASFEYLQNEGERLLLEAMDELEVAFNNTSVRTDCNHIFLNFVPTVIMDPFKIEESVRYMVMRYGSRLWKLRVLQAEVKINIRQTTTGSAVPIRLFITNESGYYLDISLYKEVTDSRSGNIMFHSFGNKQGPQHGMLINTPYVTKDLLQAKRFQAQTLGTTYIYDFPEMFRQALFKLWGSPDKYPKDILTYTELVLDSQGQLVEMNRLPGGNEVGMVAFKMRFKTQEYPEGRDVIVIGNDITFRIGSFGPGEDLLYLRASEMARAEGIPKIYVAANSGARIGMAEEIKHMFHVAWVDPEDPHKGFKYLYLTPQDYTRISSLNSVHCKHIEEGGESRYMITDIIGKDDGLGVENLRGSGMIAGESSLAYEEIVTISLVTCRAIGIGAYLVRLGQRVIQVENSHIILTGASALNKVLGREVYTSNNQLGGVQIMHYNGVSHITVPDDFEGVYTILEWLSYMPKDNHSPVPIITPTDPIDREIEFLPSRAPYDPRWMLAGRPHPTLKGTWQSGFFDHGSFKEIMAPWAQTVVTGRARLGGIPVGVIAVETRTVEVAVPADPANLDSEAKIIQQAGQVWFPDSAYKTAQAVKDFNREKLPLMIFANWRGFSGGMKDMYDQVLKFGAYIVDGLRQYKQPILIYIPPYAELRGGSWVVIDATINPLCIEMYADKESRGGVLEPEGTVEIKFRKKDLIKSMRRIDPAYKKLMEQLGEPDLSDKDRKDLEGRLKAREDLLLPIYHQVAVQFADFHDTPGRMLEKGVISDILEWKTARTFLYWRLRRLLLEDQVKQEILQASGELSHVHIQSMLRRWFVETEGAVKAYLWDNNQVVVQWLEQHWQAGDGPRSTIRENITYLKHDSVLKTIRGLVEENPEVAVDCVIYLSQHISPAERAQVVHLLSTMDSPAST

Row | Structure (SMILES) | Concentration at 90% Inhibition St ([1]; Table 4b, 48 hours) | IC90 ([1]; Table 4a, 48 hours) [µg/mL] | IC90 ([2]; Table 4a, 48 hours) [µg/mL] | IC90 ([2]; Table 4b, 48 hours) [µg/mL] | IC90 ([3]; Table 4a) [µg/mL] | IC90 ([3]; Table 4b) [µg/mL] | IC90 ([4]; Table 4a, 48 hours) [µg/mL] | Concentration at 90% Inhibition Pc ([4]; Table 4b, 48 hours) | IC90 ([5]; Table 4a) [µg/mL] | IC90 ([5]; Table 4b) [µg/mL] | IC90 ([6]; Table 4a) [µg/mL] | IC90 ([6]; Table 4b) [µg/mL] | IC90 [7, 14] [µg/mL] | IC90 [7, 15] [µg/mL] | IC90 ([8]; Table 4a) [µg/mL] | IC90 ([8]; Table 4b) [µg/mL] | IC50 [9] [nM] | IC50 [10] [nM] | MIC [11, 16] [µg/mL] | MIC [12, 17] [µg/mL] | further results
1 | COc1ccc(F)cc1[C@H](Cn1c(=O)n([C@@H](C)C(=O)N2CCCC2)c(=O)c2c(C)c(-n3cccn3)sc21)OC(C)C [Compound I-31, 1-((R)-2-(5-fluoro-2-methoxyphenyl)-2-isopropoxyethyl)-5-methyl-3-((S)-1-oxo-1-(pyrrolidin-1-yl)propan-2-yl)-6-(1H-pyrazol-1-yl)thieno[2,3-d]pyrimidine-2,4(1H,3H)-dione] | D (“D” provided a compound concentration of >50 ppm at 90% inhibition of fungal pathogens) | > 50 | 0.08 (≈ 0.137 µM) | 0.08 (≈ 0.137 µM) | 2 (≈ 3.43 µM) | 2 (≈ 3.43 µM) | > 50 | D (“D” provided a compound concentration of >50 ppm at 90% inhibition of fungal pathogens) | 0.4 (≈ 0.685 µM) | 0.4 (≈ 0.685 µM) | 0.4 (≈ 0.685 µM) | 0.4 (≈ 0.685 µM) | 0.4 (≈ 0.685 µM) | 0.4 (≈ 0.685 µM) | 0.4 (≈ 0.685 µM) | 0.4 (≈ 0.685 µM) | 3 to 10 | 0.6 to 3 | 2.1 to 4 (≈ 3.6 to 6.85 µM) | 1.1 to 2 (≈ 1.88 to 3.43 µM) | MIC [13, 18]: 2.1 to 4 µg/mL (≈ 3.6 to 6.85 µM)
2 | COc1ccc(F)cc1[C@H](Cn1c(=O)n(C(C)C(=O)N2CCCC2)c(=O)c2c(C)c(-n3cccn3)sc21)OC(C)C (stereo partly drawn) [Compound I-32, 1-((R)-2-(5-fluoro-2-methoxyphenyl)-2-isopropoxyethyl)-5-methyl-3-(1-oxo-1-(pyrrolidin-1-yl)propan-2-yl)-6-(1H-pyrazol-1-yl)thieno[2,3-d]pyrimidine-2,4(1H,3H)-dione] | D (“D” provided a compound concentration of >50 ppm at 90% inhibition of fungal pathogens) | > 50 | 0.08 (≈ 0.137 µM) | 0.08 (≈ 0.137 µM) | 2 (≈ 3.43 µM) | 2 (≈ 3.43 µM) | > 50 | D (“D” provided a compound concentration of >50 ppm at 90% inhibition of fungal pathogens) | 0.4 (≈ 0.685 µM) | 0.4 (≈ 0.685 µM) | 0.4 (≈ 0.685 µM) | 0.4 (≈ 0.685 µM) | 0.4 (≈ 0.685 µM) | 0.4 (≈ 0.685 µM) | 2 (≈ 3.43 µM) | 2 (≈ 3.43 µM) | 3 to 10 | 0.6 to 3 | > 4.1 | 2.1 to 4 (≈ 3.6 to 6.85 µM) | MIC [13, 18]: 2.1 to 4 µg/mL (≈ 3.6 to 6.85 µM)
3 | CCO[C@@H](Cn1c(=O)n(C(C)(C)C(=O)NC(C)C)c(=O)c2c(C)c(-n3cccn3)sc21)c1cc(F)ccc1OC [Compound I-33, (R)-2-(1-(2-ethoxy-2-(5-fluoro-2-methoxyphenyl)ethyl)-5-methyl-2,4-dioxo-6-(1H-pyrazol-1-yl)-1,4-dihydrothieno[2,3-d]pyrimidin-3(2H)-yl)-N-isopropyl-2-methylpropanamide] |  |  |  |  | 10 (≈ 17.5 µM) | 2 (≈ 3.5 µM) |  |  | 2 (≈ 3.5 µM) | 2 (≈ 3.5 µM) | 10 (≈ 17.5 µM) | 2 (≈ 3.5 µM) |  |  | > 50 | > 50 | 10 to 40 | 0.6 to 3 |  |  | IC90 ([1]; 48 h, Table 4a): > 50 µg/mL; IC90 ([1]; 48 h, Table 4b): > 50 µg/mL; IC90 [2]: 0.4 µg/mL (≈ 0.7 µM); Concentration at 90% Inhibition Fm ([2]; Table 4b, 48 hours): A (“A” provided a compound concentration of 0.4 ppm at 90% inhibition of fungal pathogens); IC90 ([4]; 48 h, Table 4a): > 50 µg/mL; IC90 ([4]; 48 h, Table 4b): > 50 µg/mL; IC90 ([7]; read-out: Concentration at 90% Inhibition Fv, Table 4a, 48 hours): 0.4 µg/mL (≈ 0.7 µM); IC90 ([7]; read-out: Concentration at 90% Inhibition Fv, Table 4b, 48 hours): 0.4 µg/mL (≈ 0.7 µM); MIC ([11]; ATCC22019, 48 h): > 4.1 µg/mL; MIC ([12]; ATCC90028, 48 h): > 4.1 µg/mL; MIC ([13]; ATCC6258, 48 h): > 4.1 µg/mL
4 | CCO[C@@H](Cn1c(=O)n(C(C)(C)C(=O)N2CCCC2)c(=O)c2c(C)c(-n3cccn3)sc21)c1cc(F)ccc1OC [Compound I-34, (R)-1-(2-ethoxy-2-(5-fluoro-2-methoxyphenyl)ethyl)-5-methyl-3-(2-methyl-1-oxo-1-(pyrrolidin-1-yl)propan-2-yl)-6-(1H-pyrazol-1-yl)thieno[2,3-d]pyrimidine-2,4(1H,3H)-dione] | D (“D” provided a compound concentration of >50 ppm at 90% inhibition of fungal pathogens) | > 50 | 0.08 (≈ 0.137 µM) | 0.08 (≈ 0.137 µM) | 2 (≈ 3.43 µM) | 2 (≈ 3.43 µM) | > 50 | D (“D” provided a compound concentration of >50 ppm at 90% inhibition of fungal pathogens) | 0.4 (≈ 0.685 µM) | 0.4 (≈ 0.685 µM) | 2 (≈ 3.43 µM) | 2 (≈ 3.43 µM) | 0.4 (≈ 0.685 µM) | 0.4 (≈ 0.685 µM) | 10 (≈ 17.1 µM) | 2 (≈ 3.43 µM) | 10 to 40 | 0.6 to 3 | > 4.1 | > 4.1 | MIC [13, 18]: > 4.1 µg/mL
5 | COc1ccc(F)cc1[C@H](Cn1c(=O)n(C(C)(C)C(=O)N2CCCC2)c(=O)c2c(C)c(-n3cccn3)sc21)OCCO [Compound I-36, (R)-1-(2-(5-fluoro-2-methoxyphenyl)-2-(2-hydroxy-ethoxy)ethyl)-5-methyl-3-(2-methyl-1-oxo-1-(pyrrolidin-1-yl)propan-2-yl)-6-(1H-pyrazol-1-yl)thieno[2,3-d]pyrimidine-2,4(1H,3H)-dione] | D (“D” provided a compound concentration of >50 ppm at 90% inhibition of fungal pathogens) | > 50 | 2 (≈ 3.34 µM) | 2 (≈ 3.34 µM) | > 50 | 10 (≈ 16.7 µM) | > 50 | D (“D” provided a compound concentration of >50 ppm at 90% inhibition of fungal pathogens) | > 50 | 10 (≈ 16.7 µM) | > 50 | 10 (≈ 16.7 µM) | 2 (≈ 3.34 µM) | 2 (≈ 3.34 µM) | > 50 | > 50 | 3 to 10 | 0.6 to 3 | 2.1 to 4 (≈ 3.5 to 6.67 µM) | 2.1 to 4 (≈ 3.5 to 6.67 µM) | MIC [13, 18]: 1.1 to 2 µg/mL (≈ 1.83 to 3.34 µM)
6 | COc1ccc(F)cc1[C@H](Cn1c(=O)n(C(C)(C)C(=O)N2CCCC2)c(=O)c2c(C)c(-n3cccn3)sc21)OC[C@@H](C)O [Compound I-37, 1-((R)-2-(5-fluoro-2-methoxyphenyl)-2-((R)-2-hydroxy-propoxy)ethyl)-5-methyl-3-(2-methyl-1-oxo-1-(pyrrolidin-1-yl)propan-2-yl)-6-(1H-pyrazol-1-yl)thieno[2,3-d]pyrimidine-2,4(1H,3H)-dione] | D (“D” provided a compound concentration of >50 ppm at 90% inhibition of fungal pathogens) | > 50 | 0.4 (≈ 0.652 µM) | 0.4 (≈ 0.652 µM) | 10 (≈ 16.3 µM) | 2 (≈ 3.26 µM) | > 50 | D (“D” provided a compound concentration of >50 ppm at 90% inhibition of fungal pathogens) | 2 (≈ 3.26 µM) | 2 (≈ 3.26 µM) | > 50 | 10 (≈ 16.3 µM) | 2 (≈ 3.26 µM) | 2 (≈ 3.26 µM) | > 50 | 10 (≈ 16.3 µM) | 3 to 10 | 0.6 to 3 | 2.1 to 4 (≈ 3.42 to 6.52 µM) | 2.1 to 4 (≈ 3.42 to 6.52 µM) | MIC [13, 18]: 1.1 to 2 µg/mL (≈ 1.79 to 3.26 µM)
